Test results published in ChEMBL document CHEMBL4024706 (Eur J Med Chem, 2017).

Legend:
[1] = biological target: STE20/SPS1-related proline-alanine-rich protein kinase (Homo sapiens) (UniProt Q9UEW8); test: Inhibition of wild-type human partial length STK39 (P43 to I357 residues) expressed in mammalian expression system assessed as residual activity at 1 uM by Kinomescan method relative to control
[2] = biological target: Proto-oncogene tyrosine-protein kinase ROS (Homo sapiens) (UniProt P08922); test: Inhibition of wild-type human partial length ROS1 (A1921 to N2240 residues) expressed in bacterial expression system assessed as residual activity at 1 uM by Kinomescan method relative to control
[3] = biological target: Serine/threonine-protein kinase 32C (Homo sapiens) (UniProt Q86UX6); test: Inhibition of wild-type human partial length YANK3 (M68 to G486 residues) expressed in bacterial expression system assessed as residual activity at 1 uM by Kinomescan method relative to control
[4] = biological target: Ribosomal protein S6 kinase beta-1 (Homo sapiens) (UniProt P23443); test: Inhibition of wild-type human partial length S6K1 (M1 to S421 residues) expressed in mammalian expression system assessed as residual activity at 1 uM by Kinomescan method relative to control
[5] = biological target: Ephrin type-B receptor 3 (Homo sapiens) (UniProt P54753); test: Inhibition of wild-type human partial length EPHB3 (Q599 to T928 residues) expressed in bacterial expression system assessed as residual activity at 1 uM by Kinomescan method relative to control
[6] = Cmax in Sprague-Dawley rat at 1 mg/kg, iv by LC-MS/MS method; assay type: ADME, organism-based; design: dose 1 mg/kg, route intravenous; conditions: in vivo
[7] = biological target: Serine/threonine-protein kinase TNNI3K (Homo sapiens) (UniProt Q59H18); test: Inhibition of wild-type human full length TNNI3K (M1 to S835 residues) expressed in bacterial expression system assessed as residual activity at 1 uM by Kinomescan method relative to control
[8] = biological target: Death-associated protein kinase 2 (Homo sapiens) (UniProt Q9UIK4); test: Inhibition of wild-type human full length DAPK2 (M1 to S370 residues) expressed in bacterial expression system assessed as residual activity at 1 uM by Kinomescan method relative to control
[9] = biological target: Serine/threonine-protein kinase PLK1 (Homo sapiens) (UniProt P53350); test: Inhibition of wild-type human partial length PLK1 (A33 to F325 residues) expressed in mammalian expression system assessed as residual activity at 1 uM by Kinomescan method relative to control
[10] = biological target: Protein kinase C theta type (Homo sapiens) (UniProt Q04759); test: Inhibition of wild-type human partial length PRKCQ (L350 to S706 residues) expressed in bacterial expression system assessed as residual activity at 1 uM by Kinomescan method relative to control
[11] = biological target: Receptor-type tyrosine-protein kinase FLT3 (Homo sapiens) (UniProt P36888); test: Inhibition of wild-type human partial length autoinhibited FLT3 (H564 to Y969 residues) expressed in mammalian expression system assessed as residual activity at 1 uM by Kinomescan method relative to control
[12] = biological target: STE20-like serine/threonine-protein kinase (Homo sapiens) (UniProt Q9H2G2); test: Inhibition of wild-type human partial length SLK (S14 to A307 residues) expressed in bacterial expression system assessed as residual activity at 1 uM by Kinomescan method relative to control
[13] = test system: Mast/stem cell growth factor receptor Kit (Homo sapiens), P10721 [V559D,T670I]; test: Inhibition of human partial length KIT V559D/T670I double mutant (Y545 to D952 residues) expressed in bacterial expression system assessed as residual activity at 1 uM by Kinomescan method relative to control
[14] = biological target: Dual specificity mitogen-activated protein kinase kinase 6 (Homo sapiens) (UniProt P52564); test: Inhibition of wild-type human partial length MEK6 (K36 to D334 residues) expressed in bacterial expression system assessed as residual activity at 1 uM by Kinomescan method relative to control
[15] = biological target: Serine/threonine-protein kinase 4 (Homo sapiens) (UniProt Q13043); test: Inhibition of wild-type human full length MST1 (M1 to F487 residues) expressed in bacterial expression system assessed as residual activity at 1 uM by Kinomescan method relative to control
[16] = biological target: CDK4/Cyclin D3 (Homo sapiens) (UniProt P11802+P30281); test: Inhibition of wild-type human full length CDK4/cyclinD3 (M1 to E303 residues) expressed in mammalian expression system assessed as residual activity at 1 uM by Kinomescan method relative to control
[17] = biological target: Cyclin-dependent kinase 2 homolog (Plasmodium falciparum (isolate 3D7)) (UniProt P61075); test: Inhibition of wild-type Plasmodium falciparum isolate 3D7 full length PK5 (M1 to N288 residues) expressed in mammalian expression system assessed as residual activity at 1 uM by Kinomescan method relative to control
[18] = biological target: Bone morphogenetic protein receptor type-1A (Homo sapiens) (UniProt P36894); test: Inhibition of wild-type human partial length BMPR1A (Q214 to I532 residues) expressed in bacterial expression system assessed as residual activity at 1 uM by Kinomescan method relative to control
[19] = biological target: Serine/threonine-protein kinase 17B (Homo sapiens) (UniProt O94768); test: Inhibition of wild-type human full length DRAK2 (M1 to C372 residues) expressed in bacterial expression system assessed as residual activity at 1 uM by Kinomescan method relative to control
[20] = biological target: Dual specificity mitogen-activated protein kinase kinase 2 (Homo sapiens) (UniProt P36507); test: Inhibition of wild-type human full length MEK2 (M1 to V400 residues) expressed in mammalian expression system assessed as residual activity at 1 uM by Kinomescan method relative to control
[21] = biological target: Calcium/calmodulin-dependent protein kinase type 1 (Homo sapiens) (UniProt Q14012); test: Inhibition of wild-type human full length CAMK1 (M1 to L370 residues) expressed in bacterial expression system assessed as residual activity at 1 uM by Kinomescan method relative to control
[22] = biological target: Calcium/calmodulin-dependent protein kinase type II subunit alpha (Homo sapiens) (UniProt Q9UQM7); test: Inhibition of wild-type human partial length CAMK2A (M1 to K328 residues) expressed in bacterial expression system assessed as residual activity at 1 uM by Kinomescan method relative to control
[23] = biological target: Serine/threonine-protein kinase 3 (Homo sapiens) (UniProt Q13188); test: Inhibition of wild-type human partial length MST2 (D17 to E318 residues) expressed in bacterial expression system assessed as residual activity at 1 uM by Kinomescan method relative to control
[24] = biological target: 5'-AMP-activated protein kinase catalytic subunit alpha-2 (Homo sapiens) (UniProt P54646); test: Inhibition of wild-type human partial length AMPK alpha2 (M1 to E306 residues) expressed in bacterial expression system assessed as residual activity at 1 uM by Kinomescan method relative to control
[25] = biological target: Leukocyte tyrosine kinase receptor (Homo sapiens) (UniProt P29376); test: Inhibition of wild-type human partial length LTK (P422 to S744 residues) expressed in bacterial expression system assessed as residual activity at 1 uM by Kinomescan method relative to control

Chain of Serine/threonine-protein kinase PLK1 (Homo sapiens) (P53350 whole entry, the tested form may be a part): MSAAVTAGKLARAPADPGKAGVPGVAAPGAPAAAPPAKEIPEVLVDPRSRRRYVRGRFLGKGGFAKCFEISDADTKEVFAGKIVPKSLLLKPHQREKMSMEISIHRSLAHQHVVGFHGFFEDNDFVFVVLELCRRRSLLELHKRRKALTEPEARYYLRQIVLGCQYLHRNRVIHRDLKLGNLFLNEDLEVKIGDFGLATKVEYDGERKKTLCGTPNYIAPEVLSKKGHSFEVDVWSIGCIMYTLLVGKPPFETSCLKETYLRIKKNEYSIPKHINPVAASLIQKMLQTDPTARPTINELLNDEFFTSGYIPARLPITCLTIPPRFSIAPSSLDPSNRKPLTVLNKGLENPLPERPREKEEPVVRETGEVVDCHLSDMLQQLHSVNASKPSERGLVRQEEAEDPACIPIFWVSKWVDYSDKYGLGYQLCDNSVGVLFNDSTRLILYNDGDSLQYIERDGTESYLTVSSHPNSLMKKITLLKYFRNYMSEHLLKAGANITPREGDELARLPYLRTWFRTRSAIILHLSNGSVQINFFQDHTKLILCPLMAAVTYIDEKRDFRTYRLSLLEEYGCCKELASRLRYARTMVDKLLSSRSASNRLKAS
Chain of Calcium/calmodulin-dependent protein kinase type II subunit alpha (Homo sapiens) (Q9UQM7 whole entry, the tested form may be a part): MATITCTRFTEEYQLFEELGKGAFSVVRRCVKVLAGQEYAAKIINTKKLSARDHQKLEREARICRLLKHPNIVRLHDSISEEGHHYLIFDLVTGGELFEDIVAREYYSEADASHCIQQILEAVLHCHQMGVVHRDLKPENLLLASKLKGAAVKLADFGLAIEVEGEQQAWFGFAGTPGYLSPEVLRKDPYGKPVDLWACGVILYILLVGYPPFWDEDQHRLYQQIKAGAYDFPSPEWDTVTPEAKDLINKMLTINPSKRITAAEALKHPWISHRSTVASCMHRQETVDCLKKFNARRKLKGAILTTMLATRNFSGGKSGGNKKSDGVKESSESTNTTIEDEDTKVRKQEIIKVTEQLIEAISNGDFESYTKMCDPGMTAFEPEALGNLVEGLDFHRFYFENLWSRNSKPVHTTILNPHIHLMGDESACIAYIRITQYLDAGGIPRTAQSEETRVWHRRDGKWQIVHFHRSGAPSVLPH
Chain of Protein kinase C theta type (Homo sapiens) (Q04759 whole entry, looked up, the tested form may be a part): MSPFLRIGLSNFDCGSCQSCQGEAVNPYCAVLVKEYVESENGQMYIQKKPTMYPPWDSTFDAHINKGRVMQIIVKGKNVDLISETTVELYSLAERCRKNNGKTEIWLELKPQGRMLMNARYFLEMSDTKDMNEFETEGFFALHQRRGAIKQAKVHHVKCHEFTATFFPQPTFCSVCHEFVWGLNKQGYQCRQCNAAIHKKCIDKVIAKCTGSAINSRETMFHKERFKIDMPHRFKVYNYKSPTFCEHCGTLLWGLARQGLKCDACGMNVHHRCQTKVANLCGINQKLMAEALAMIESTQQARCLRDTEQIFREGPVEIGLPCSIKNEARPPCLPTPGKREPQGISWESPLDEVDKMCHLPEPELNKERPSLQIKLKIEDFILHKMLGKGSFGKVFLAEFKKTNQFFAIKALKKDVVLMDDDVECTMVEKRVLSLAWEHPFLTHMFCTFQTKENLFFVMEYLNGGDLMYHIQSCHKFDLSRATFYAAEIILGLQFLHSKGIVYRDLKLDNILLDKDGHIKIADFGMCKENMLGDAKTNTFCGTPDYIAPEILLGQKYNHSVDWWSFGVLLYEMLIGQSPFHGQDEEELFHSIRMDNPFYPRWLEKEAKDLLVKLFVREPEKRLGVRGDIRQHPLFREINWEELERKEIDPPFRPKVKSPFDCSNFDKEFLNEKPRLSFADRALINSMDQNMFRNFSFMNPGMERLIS
Chain of Dual specificity mitogen-activated protein kinase kinase 6 (Homo sapiens) (P52564 whole entry, the tested form may be a part): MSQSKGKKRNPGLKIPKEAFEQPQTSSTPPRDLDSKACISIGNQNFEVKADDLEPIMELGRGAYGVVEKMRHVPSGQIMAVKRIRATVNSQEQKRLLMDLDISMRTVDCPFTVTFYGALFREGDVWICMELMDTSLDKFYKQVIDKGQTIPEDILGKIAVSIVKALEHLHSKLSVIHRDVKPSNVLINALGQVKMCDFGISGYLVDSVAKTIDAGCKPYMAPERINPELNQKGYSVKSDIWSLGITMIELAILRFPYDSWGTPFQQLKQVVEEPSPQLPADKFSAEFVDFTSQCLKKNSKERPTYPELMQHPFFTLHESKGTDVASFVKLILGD
Chain of Cyclin-dependent kinase 2 homolog (Plasmodium falciparum (isolate 3D7)) (P61075 whole entry, the tested form may be a part): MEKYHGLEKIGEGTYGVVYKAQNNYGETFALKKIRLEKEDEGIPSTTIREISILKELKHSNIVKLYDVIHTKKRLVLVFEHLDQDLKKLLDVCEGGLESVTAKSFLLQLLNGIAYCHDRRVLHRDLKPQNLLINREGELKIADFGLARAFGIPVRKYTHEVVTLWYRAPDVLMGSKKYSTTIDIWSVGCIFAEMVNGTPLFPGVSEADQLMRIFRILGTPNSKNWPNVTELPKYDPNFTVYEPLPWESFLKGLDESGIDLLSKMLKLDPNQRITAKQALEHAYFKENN
Chain of 5'-AMP-activated protein kinase catalytic subunit alpha-2 (Homo sapiens) (P54646 whole entry, looked up, the tested form may be a part): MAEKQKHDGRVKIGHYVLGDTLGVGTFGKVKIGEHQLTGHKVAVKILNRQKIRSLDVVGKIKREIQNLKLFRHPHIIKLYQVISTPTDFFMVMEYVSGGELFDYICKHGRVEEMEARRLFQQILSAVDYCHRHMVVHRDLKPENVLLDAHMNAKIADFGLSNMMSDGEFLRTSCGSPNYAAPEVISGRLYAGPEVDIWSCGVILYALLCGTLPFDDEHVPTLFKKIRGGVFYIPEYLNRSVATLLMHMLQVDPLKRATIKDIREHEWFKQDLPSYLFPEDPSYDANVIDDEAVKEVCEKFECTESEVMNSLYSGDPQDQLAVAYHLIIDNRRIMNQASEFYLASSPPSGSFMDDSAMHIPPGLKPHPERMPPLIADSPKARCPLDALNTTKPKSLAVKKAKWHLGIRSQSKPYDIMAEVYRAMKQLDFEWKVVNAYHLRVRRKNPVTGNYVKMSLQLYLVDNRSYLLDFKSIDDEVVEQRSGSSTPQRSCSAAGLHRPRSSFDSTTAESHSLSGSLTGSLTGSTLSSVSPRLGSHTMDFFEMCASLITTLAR
Chain of Mast/stem cell growth factor receptor Kit (Homo sapiens), P10721 [V559D,T670I] (P10721 whole entry V559D/T670I, the tested form may be a part): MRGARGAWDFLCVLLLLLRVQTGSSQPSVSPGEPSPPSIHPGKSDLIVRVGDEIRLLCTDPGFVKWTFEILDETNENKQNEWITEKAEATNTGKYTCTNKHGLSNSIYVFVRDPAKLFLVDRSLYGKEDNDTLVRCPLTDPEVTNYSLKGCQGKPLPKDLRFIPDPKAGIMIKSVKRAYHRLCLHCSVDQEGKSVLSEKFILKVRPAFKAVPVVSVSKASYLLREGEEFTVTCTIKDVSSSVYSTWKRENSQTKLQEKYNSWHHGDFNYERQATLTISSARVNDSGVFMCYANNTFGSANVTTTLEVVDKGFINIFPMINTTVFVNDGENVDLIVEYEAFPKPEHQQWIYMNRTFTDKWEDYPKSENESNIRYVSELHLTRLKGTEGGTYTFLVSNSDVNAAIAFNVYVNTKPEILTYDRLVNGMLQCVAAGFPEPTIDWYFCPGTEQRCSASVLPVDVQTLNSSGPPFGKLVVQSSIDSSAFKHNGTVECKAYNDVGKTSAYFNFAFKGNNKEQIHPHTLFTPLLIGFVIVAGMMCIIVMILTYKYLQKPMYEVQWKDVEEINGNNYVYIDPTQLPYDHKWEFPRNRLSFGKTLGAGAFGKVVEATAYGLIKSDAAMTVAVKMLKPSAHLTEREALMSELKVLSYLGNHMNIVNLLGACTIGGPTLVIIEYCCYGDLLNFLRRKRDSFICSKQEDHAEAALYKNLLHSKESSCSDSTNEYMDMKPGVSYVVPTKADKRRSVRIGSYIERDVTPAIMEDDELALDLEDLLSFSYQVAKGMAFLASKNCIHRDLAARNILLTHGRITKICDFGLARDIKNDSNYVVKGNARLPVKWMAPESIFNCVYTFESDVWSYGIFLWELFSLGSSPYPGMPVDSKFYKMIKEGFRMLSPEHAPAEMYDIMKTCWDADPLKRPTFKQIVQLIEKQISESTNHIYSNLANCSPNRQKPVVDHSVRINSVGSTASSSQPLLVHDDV
Chain of Serine/threonine-protein kinase TNNI3K (Homo sapiens) (Q59H18 whole entry, the tested form may be a part): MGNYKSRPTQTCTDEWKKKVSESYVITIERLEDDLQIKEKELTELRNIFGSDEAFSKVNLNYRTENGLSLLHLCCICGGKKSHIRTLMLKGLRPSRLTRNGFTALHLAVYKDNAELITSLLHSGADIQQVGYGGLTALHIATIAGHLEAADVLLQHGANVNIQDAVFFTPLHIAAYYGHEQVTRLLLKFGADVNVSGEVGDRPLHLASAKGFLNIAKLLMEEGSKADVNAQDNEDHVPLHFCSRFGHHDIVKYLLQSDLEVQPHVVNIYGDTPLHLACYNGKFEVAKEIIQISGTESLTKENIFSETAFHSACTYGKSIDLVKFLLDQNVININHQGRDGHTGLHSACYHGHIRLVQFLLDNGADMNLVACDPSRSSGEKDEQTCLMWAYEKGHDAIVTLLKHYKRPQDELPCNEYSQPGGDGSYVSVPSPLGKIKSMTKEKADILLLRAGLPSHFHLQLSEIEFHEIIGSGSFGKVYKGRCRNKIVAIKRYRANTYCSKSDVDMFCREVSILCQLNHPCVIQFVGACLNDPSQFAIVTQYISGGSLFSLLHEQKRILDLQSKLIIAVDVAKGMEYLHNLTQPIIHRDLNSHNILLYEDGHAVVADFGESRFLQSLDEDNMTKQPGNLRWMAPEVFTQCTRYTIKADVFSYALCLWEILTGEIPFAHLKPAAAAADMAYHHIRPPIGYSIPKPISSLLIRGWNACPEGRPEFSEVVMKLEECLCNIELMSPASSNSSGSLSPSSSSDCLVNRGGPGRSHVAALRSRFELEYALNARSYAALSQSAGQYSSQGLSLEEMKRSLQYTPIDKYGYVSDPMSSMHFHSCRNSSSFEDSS

C=CC(=O)Nc1cc(Nc2cc(-c3cccc(NC(=O)c4ccc(C(C)(C)C)cc4)c3C)cn(C)c2=O)ccc1C(=O)N1CCOCC1
Activity [1]: 70%
Activity [2]: 100%
Activity [3]: 97%
Activity [4]: 100%
Activity [5]: 92%
Cmax [6]: 897 ng/mL
Activity [7]: 37%
Activity [8]: 99%
Activity [9]: 100%
Activity [10]: 91%
Activity [11]: 100%
Activity [12]: 100%
Activity [13]: 96%
Activity [14]: 100%
Activity [15]: 95%
Activity [16]: 100%
Activity [17]: 88%
Activity [18]: 98%
Activity [19]: 94%
Activity [20]: 100%
Activity [21]: 92%
Activity [22]: 100%
Activity [23]: 87%
Activity [24]: 92%
Activity [25]: 81%
